In ChEMBL document CHEMBL1201862, “PubChem BioAssay data set” (2004):
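Each compound was tested at five concentrations against cells in 96-well plates for 48 hours. GI50 marks 50% less growth.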 The source made the active and inactive calls. No stated cut-off is given here; in the data, active = GI50 up to about 1.1 µM and inactive = higher.

Columns and labels:
Experiment in all cases: DTP human tumour cell line panel, 48 h
[1] = system: A549
[2] = system: COLO 205
[3] = system: HL-60
[4] = system: HOP-62
[5] = system: NCI-H522
[6] = system: RPMI-8226
[7] = system: SF-268
[8] = system: SK-MEL-2
[9] = system: SK-OV-3
[10] = system: SW-620
[11] = system: TK-10
[12] = system: UACC-257
[13] = system: IGROV-1
[14] = system: SK-MEL-5
[15] = system: SNB-75

Measured: GI50

Cc1cnc2ccc(C)c([N+](=O)[O-])c2c1NCCCN(C)C
inactive: [1] > 100 µM | [2] 76.2 µM | [3] > 100 µM | [4] > 100 µM | [5] > 100 µM | [6] > 100 µM | [7] > 100 µM | [8] > 100 µM | [9] > 100 µM | [10] > 100 µM | [11] > 100 µM | [12] > 100 µM

CC1=C(C(=O)Nc2ccc(C)cc2)C(c2cccc([N+](=O)[O-])c2)C(C(=O)Nc2ccc(C)cc2)=C(C)N1
inactive: [1] 26.2 µM | [2] 14.1 µM | [3] 16.1 µM | [4] 29.5 µM | [13] 20.9 µM | [5] 27.4 µM | [7] 16.1 µM | [8] 20.8 µM | [14] 20.2 µM | [9] 55.2 µM | [15] 16.7 µM | [10] 35.2 µM | [11] 31.6 µM | [12] 21.2 µM

Cc1cc(N(CCC#N)CCC#N)ccc1/N=N/c1ccccc1[N+](=O)[O-]
inactive: [1] > 100 µM | [2] > 100 µM | [3] > 100 µM | [4] 43.6 µM | [13] > 100 µM | [5] > 100 µM | [7] > 100 µM | [8] > 100 µM | [14] > 100 µM | [9] > 100 µM | [15] 34 µM | [10] > 100 µM | [11] > 100 µM | [12] > 100 µM

O=C(O)/C(Cl)=C(\Cl)C(=O)Nc1ccccc1
inactive: [1] > 100 µM | [2] > 100 µM | [4] > 100 µM | [13] > 100 µM | [6] > 100 µM | [7] > 100 µM | [8] > 100 µM | [14] > 100 µM | [9] > 100 µM | [15] > 100 µM | [10] > 100 µM | [11] > 100 µM | [12] > 100 µM

COc1cc(C(=O)N2CCc3c([nH]c4c([N+](=O)[O-])c(OC)ccc34)C2C)cc(OC)c1OC (stereo unspecified)
inactive: [1] > 100 µM | [2] > 100 µM | [3] > 100 µM | [4] > 100 µM | [13] 8.11 µM | [5] > 100 µM | [6] > 100 µM | [7] 29.8 µM | [8] > 100 µM | [15] 40.8 µM | [10] > 100 µM | [11] > 100 µM | [12] > 100 µM

NNC(=O)N/N=C1\CN(c2ccc(Cl)cc2Cl)C(=O)C(=O)C1c1nc2ccccc2o1 (stereo unspecified)
inactive: [1] > 100 µM | [2] > 100 µM | [4] > 100 µM | [13] > 100 µM | [5] > 100 µM | [6] > 100 µM | [7] > 100 µM | [8] > 100 µM | [14] > 100 µM | [9] > 100 µM | [15] > 100 µM | [10] > 100 µM | [12] > 100 µM

CC(C)C12Cc3c(ccc4ccccc34)OC1(C)Oc1ccc3ccccc3c1C2 (stereo unspecified)
inactive: [1] > 100 µM | [2] > 100 µM | [13] > 100 µM | [5] 63.7 µM | [7] > 100 µM | [8] > 100 µM | [14] > 100 µM | [9] > 100 µM | [15] > 100 µM | [10] > 100 µM | [11] > 100 µM

O=S(=O)(C1=CC(S(=O)(=O)c2ccccc2)COC1)c1ccccc1 (stereo unspecified)
inactive: [1] > 100 µM | [2] > 100 µM | [3] > 100 µM | [4] > 100 µM | [13] > 100 µM | [5] > 100 µM | [6] > 100 µM | [7] > 100 µM | [8] > 100 µM | [9] > 100 µM | [15] > 100 µM | [10] > 100 µM | [11] > 100 µM | [12] > 100 µM

O=[N+]([O-])c1ccc(Cl)c(C2CC(c3cccc4ccccc34)=Nc3ccccc3[S+]2[O-])c1 (stereo unspecified)
inactive: [1] 20 µM | [2] > 56.6 µM | [3] 4.89 µM | [4] 21.8 µM | [13] 28.2 µM | [5] 7.23 µM | [6] 2.21 µM | [7] 18.4 µM | [8] 15.1 µM | [14] 14.4 µM | [9] > 100 µM | [15] 5.86 µM | [10] 7.85 µM | [11] 31.8 µM | [12] 17 µM

COc1ccc2c3c(c(C(=O)O)oc13)C(CCC(=O)O)CC2 (stereo unspecified)
inactive: [1] > 100 µM | [2] > 100 µM | [4] > 100 µM | [13] > 100 µM | [14] > 100 µM | [9] > 100 µM | [15] > 100 µM | [10] > 100 µM | [11] > 100 µM | [12] > 100 µM

CCCCCCCCCCCCCC(=O)OC1CC(=O)OC1CO (stereo unspecified)
inactive: [1] 55.1 µM | [2] > 100 µM | [3] 23 µM | [4] > 100 µM | [13] 41 µM | [6] 36.5 µM | [7] 64 µM | [8] > 100 µM | [14] 91.8 µM | [9] > 100 µM | [15] 79.6 µM | [10] 71.6 µM | [11] > 100 µM | [12] > 100 µM

Cc1cccc(C)c1N1C(=O)C(=O)C(c2nc3ccccc3s2)/C(=N/c2cccc3c(=O)[nH][nH]c(=O)c23)C1=O (stereo unspecified)
inactive: [1] > 100 µM | [2] 41.5 µM | [3] 71.3 µM | [4] > 100 µM | [13] > 100 µM | [6] > 100 µM | [7] > 100 µM | [8] > 100 µM | [14] > 100 µM | [9] > 100 µM | [15] 81.8 µM | [10] > 100 µM | [11] > 100 µM | [12] > 100 µM

NCCNCc1c2ccccc2c(CNCCN)c2ccccc12
inactive: [1] 12.1 µM | [2] 8.17 µM | [3] 20.4 µM | [4] 24.3 µM | [13] 32.3 µM | [5] 8.13 µM | [7] 7.98 µM | [8] 14.5 µM | [14] 26.4 µM | [10] 11.1 µM | [11] 69 µM | [12] 16.4 µM

Fc1ccc(C2SCc3nc4ccccc4n32)cc1 (stereo unspecified)
inactive: [1] 45.3 µM | [2] 57 µM | [3] 22.3 µM | [4] 35.8 µM | [13] 47.9 µM | [5] 14.1 µM | [6] 26.4 µM | [7] 54.3 µM | [8] 39.6 µM | [14] 15.8 µM | [9] 94.6 µM | [15] 3.1 µM | [10] 74.6 µM | [11] 24.4 µM

Cc1ccc(Nc2nc(C)c(C(/C=C/c3ccc(/C=C/C(=N/NC(=O)C[n+]4ccccc4)c4sc(Nc5ccc(C)cc5[N+](=O)[O-])nc4C)cc3)=N\NC(=O)C[n+]3ccccc3)s2)c([N+](=O)[O-])c1
inactive: [1] > 100 µM | [2] > 100 µM | [3] 27.4 µM | [4] > 100 µM | [13] > 100 µM | [5] > 100 µM | [7] > 100 µM | [8] > 100 µM | [9] > 100 µM | [15] 33.5 µM | [10] > 100 µM | [11] 51.3 µM | [12] > 100 µM
